According to patent US20240285600A1, “NOVEL MKRN1 INHIBITOR AND PHARMACEUTICAL COMPOSITION FOR PREVENTING OR TREATING OBESITY OR FATTY LIVER COMPRISING THE SAME” (UIF (University Industry Foundation), Yosei University, priority 2023, published 2024):

What was measured:
[1] = system: wild-type mice fed an HFHF diet; experiment: Therapeutic effect on steatohepatitis in mice fed an HFHF diet, ebastine after 16 weeks; assay type: in vivo; settings: HFHF diet 20 weeks
Experimental: (§1) Body weights were measured once every 3 to 4 days for 20 weeks, and the liver was isolated at the end of the experiment. Thereafter, a histological examination was performed.

AMPK = settings: HepG2 cells, cultured for 16 or 24 hours, FIG. 9
[2] = system: wild-type mice fed an HFHF diet; experiment: Anti-obesity/anti-steatohepatitis effect in mice fed an HFHF diet, ebastine after 4 weeks; assay type: in vivo; settings: HFHF diet 20 weeks
Experimental: as §1

[3] = system: wild-type mice fed a CDAHFD; experiment: Anti-steatohepatitis effect in mice fed a CDAHFD, ebastine after 2 weeks; assay type: in vivo; settings: CDAHFD 6 weeks, vs control
Experimental: Body weights were measured once every 3 to 4 days for 6 weeks, and the liver was isolated at the end of the experiment. Thereafter, a histological examination was performed.

HepG2 cells = experiment: Fat accumulation in HepG2 cells treated with AMPK activator and PAOA; assay type: cell-based; settings: PAOA 1 mM, FIG. 8
Experimental: Specifically, HepG2 cells were cultured, and then treated with various types of AMPK activators. Thereafter, the cells were treated with palmitic acid and oleic acid (PAOA) at a concentration of 1 mM, and further cultured, and the degree of fat accumulation was then confirmed.

CC(C)(C)c1ccc(C(=O)CCCN2CCC(OC(c3ccccc3)c3ccccc3)CC2)cc1 [ebastine]
weight of the liver ([1]; ebastine 5 mg/kg after 16 weeks, FIG. 15C): lowest | body weight change ([1]; ebastine 1 and 5 mg/kg after 16 weeks (for 4 weeks), vs control, FIG. 15A): no difference | liver shape observed with the naked eye ([1]; ebastine after 16 weeks, FIG. 15B): close to a normal shape | expression level of MKRN1 in the liver (immunohistochemistry) ([1]; ebastine after 16 weeks, vs control, FIG. 15D): decreased | fat accumulation in the liver (H&E) ([1]; ebastine after 16 weeks, vs control, FIG. 15E): almost no fat accumulated in the liver | liver fibrosis (Sirius Red) ([1]; ebastine after 16 weeks, vs control, FIG. 15F): did not progress | liver inflammation (F4/80 IHC) ([1]; ebastine after 16 weeks, vs control, FIG. 15G): suppressed | expression levels of fibrosis- and inflammation-related genes in the liver (RT-PCR) ([1]; ebastine after 16 weeks, vs control, FIG. 15H): generally suppressed | amount of AMPK (AMPK): increased | amount of phosphorylated AMPK (AMPK): increased | weight of the liver ([2]; ebastine 5 mg/kg after 4 weeks, FIG. 13C): lowest | body weight gain ([2]; ebastine 1 and 5 mg/kg after 4 weeks, vs control, FIG. 13A): less | liver shape observed with the naked eye ([2]; ebastine after 4 weeks, FIG. 13B): close to a normal shape | expression level of MKRN1 in the liver (immunohistochemistry) ([2]; ebastine after 4 weeks, vs control): decreased | fat accumulation in the liver (H&E) ([2]; ebastine after 4 weeks, vs control, FIG. 13E): almost no fat accumulated in the liver | liver fibrosis (Sirius Red) ([2]; ebastine after 4 weeks, vs control, FIG. 13F): did not progress | liver inflammation (F4/80 IHC) ([2]; ebastine after 4 weeks, vs control, FIG. 13G): suppressed | body weight ([3]; ebastine 1 and 5 mg/kg after 2 weeks, FIG. 14A): no significant difference | liver condition observed with the naked eye ([3]; ebastine after 2 weeks, FIG. 14B): appeared similar | liver weight ([3]; ebastine after 2 weeks, FIG. 14C): no difference | expression level of MKRN1 in the liver (immunohistochemistry) ([3]; ebastine after 2 weeks, FIG. 14D): decreased | fat accumulation in the liver (H&E) ([3]; ebastine after 2 weeks, FIG. 14E): almost no fat accumulated in the liver | liver fibrosis (Sirius Red) ([3]; ebastine after 2 weeks, FIG. 14F): did not progress | liver inflammation (F4/80 IHC) ([3]; ebastine after 2 weeks, FIG. 14G): suppressed | degree of fat accumulation (HepG2 cells): effective in suppressing fat accumulation
